# Source: patent US9266827B2, “Bicyclic sulfone compounds for inhibition of RORgamma activity and the treatment of disease” (Merck Sharp & Dohme Corp., priority 2012, dated 2016)
# Biological target: T1, RORγ-LBD (Homo sapiens, UniProt P51449)
# T1 construct: made in house; host or cells: SF9 insect cells, baculovirus; crude lysate used
# T1 sequence (P51449 269-508 limits assumed): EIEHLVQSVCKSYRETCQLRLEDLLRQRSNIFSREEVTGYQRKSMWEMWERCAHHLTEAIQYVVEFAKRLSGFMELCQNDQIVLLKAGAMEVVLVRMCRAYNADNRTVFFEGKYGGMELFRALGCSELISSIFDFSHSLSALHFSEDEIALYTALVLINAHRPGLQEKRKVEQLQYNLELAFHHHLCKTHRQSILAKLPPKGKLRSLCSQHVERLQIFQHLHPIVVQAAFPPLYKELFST
# Experiment: RORγ-Ligand Binding Domain (LBD) TR-FRET Assay
# Format: biochemical
# Settings: recombinant HIS-tagged RORγ-LBD lysate, biotinylated SRC1-2 LXXLL peptide
# Protocol: Recombinant, HIS-tagged RORγ-LBD was expressed in SF9 cells using a baculovirus expression system. Cells were lysed and the lysate was used as a source for RORγ-LBD for the assay. A 1:80 dilution of RORγ-LBD lysate in assay buffer (25 mM HEPES pH 7.0, 100 mM NaCl, 0.01% Tween, 0.1% BSA) was prepared and 5 μL was added to each well (RORγ-LBD final concentration ˜3 nM). Control wells received lysate from SF9 cells not expressing RORγ-LBD.
# Compounds to be tested were diluted to 100× final test concentration in DMSO and further diluted to 4× final test concentration using assay buffer to provide the test compound mixture. An aliquot (5 μL) of the test compound mixture was added to each well.
# A 4× stock of biotinylated-LXXLL peptide from SRC1-2 (Biotin-[…]) was prepared in assay buffer and a 5 μL aliquot added to each well (450 nM final concentration). A 4× solution of europium tagged anti-HIS antibody (2 nM final concentration) and APC conjugated streptavidin (60 nM final concentration) were prepared and a 5 μL aliquot added to each well.
# The final assay mixture was incubated for 4 hours to overnight, and the fluorescence signal was measured on an Envision plate reader: (Excitation filter=340 nm; APC emission=665 nm; Europium emission=615 nm; dichroic mirror=D400/D630; delay time=100 μs, integration time=200 μs).
# EC50 values for test compounds were calculated from the quotient of the fluorescence signal at 665 nm divided by the fluorescence signal at 615 nm using GraphPad Prism software
row,Structure (SMILES),EC50 [nM]
1,O=C(Nc1ccc2c(c1)C(S(=O)(=O)c1ccc(C(F)(F)F)cc1)CCC2)c1c(F)cccc1C(F)(F)F (stereo not shown) [IV-2],< 150
2,"O=C(Nc1ccc2c(c1)C(S(=O)(=O)c1ccc(C(F)(F)F)cc1)CCC2)c1c(F)cccc1Cl (stereo not shown) [Compound 1, 2-Chloro-6-fluoro-N-[8-(4-trifluoromethylbenzenesulfonyl)-5,6,7,8-tetrahydronaphthalen-2-yl]benzamide]",< 150
3,O=C(Nc1ccc2c(c1)C(S(=O)(=O)c1ccc(C(F)(F)F)cc1)CCC2)c1c(F)cccc1F (stereo not shown) [IV-4],< 150
4,O=C(Nc1ccc2c(c1)C(S(=O)(=O)c1ccc(C(F)(F)F)cc1)CCC2)c1c(Cl)cccc1C(F)(F)F (stereo not shown) [IV-1],< 150
